The experiment deals with IFN-γ production in human peripheral blood mononuclear cells (PBMCs). Nature of the experiment: Experiment 1: IFN-γ production by PHA-stimulated human PBMCs, ELISA. In kind it is cell-based. As to conditions: for IFN-γ Concentration, Mean: mean of first three subjects, 24 h. As for the experimental part: The ex vivo activity of various compounds towards suppression of IFN-γ production in human peripheral blood mononuclear cells (PBMCs) was studied.
[…] They were not taking any other prescribed medication that could interfere with the results.
The blood was transferred into 50 ml centrifuge tubes (Corning, USA) containing heparin sodium salt 37.5 mg heparin powder diluted in 300-500 μl phosphate buffered saline (PBS) for 50 ml blood), and centrifuged at 2000 rpm for 10 minutes, and the plasma portion was separated. The plasma was further centrifuged at 3000 rpm for 10 minutes, and the supernatant separated and kept for later use.
The blood cells from the initial centrifugation were diluted with an equal volume of RPMI-1640 (Sigma, UK), and layered (2:1) onto Lymphoprep (Axis-Shield, Norway) in 25 ml universal tubes (Bibby Sterilin, UK) for density gradient centrifugation at 2500 rpm for 30 minutes.
PBMCs (lymphocytes and monocytes) were then removed from the interface, diluted in an equal volume of RPMI-1640 and washed twice by centrifugation at 3000 rpm for 10 minutes.
For testing, the PBMCs were re-suspended in a known volume of culture medium containing RPMI-1640 supplemented with 2 mM L-glutamine, 100 U penicillin, and 100 μg streptomycin (Sigma, UK).
The cell count was determined by the use of a haemocytometer using 10 μl of the cell suspension. The number of cells was determined based on a count in 5 random 1 mm squares.
The cell solution was then diluted with the supplemented RPMI-1640 medium to ensure a cell count of 2×10^6 cells/ml.
The PBMC suspension was added to tissue culture tubes (Bibby Sterilin, UK) with 5% autologous plasma, 5 μg/mlphytohaemaglutinin (PHA) to stimulate T-lymphocyte IFN-γ production, and a solution containing various concentrations of the compound to be studied. A control containing no compound was also cultured for each subject.
In the case of lamotrigine, the isethionate salt was used, and diluted with RPMI-1640 to produce 100 μM, 30 μM, 10 μM and 3 μM solutions that were tested on PBMCs from the first three subjects. With PBMC's from the other two subjects, a 300 μM solution was also tested.
For sipatrigine, the mesylate salt was used, and diluted with RPMI-1640 to produce 30 μM, 10 μM, 3 μM and 1 μM solutions. It was tested on PBMCs from the first three subjects only.
The tubes were incubated at 37° C. for 24 hours under a 5% CO2 atmosphere. After incubation, the cells (>75% viable according to trypan blue test) were centrifuged at 3000 prm for 10 minutes, and the cell-free supernatants were collected and stored at −70° C. before analysis for IFN-γ.
Levels of IFN-γ produced by the PBMCs were determined by the DuoSet ELISA Development system for human IFN-γ (RD Systems, UK), with a sensitivity of 15.6-1000 pg/ml.
Capture antibody, detection antibody, standard and streptavidin-HRP (streptavidin conjugated to horseradish peroxidase) were provided. A 96-well microtitre plate (Corning CoStar, flat bottom, polystyrene, high binding microtitre plate, UK) was coated with 100 μl per well of capture antibody (mouse anti-human IFN-γ at 4.0 μg/ml), sealed and incubated overnight. Unbound capture antibody was washed from the wells three times, using a wash buffer (0.05% Tween 20 in PBS). Block buffer (1% bovine serum albumin (BSA) in PBS) was then added. After incubation for 1 hour, the wells were washed, and sample culture supernatants or standards were added. A 7-point standard curve (in the range 15.6-1000 pg/ml) was produced from […] recombinant human IFN-γ using 2-fold serial dilutions in reagent diluent (0.1% BSA, 0.05% Tween 20 in tris-buffered saline (20 mM Trizma base, 150 mM NaCl)). The sealed plates were left to incubate for 2 hours.
After further washing, the detection antibody (biotinylated goat anti-human IFN-γ at 175 ng/ml) was added, and the plates sealed and incubated for a further 2 hours. […]
For orientation: ELISA stands for enzyme-linked immunosorbent assay.

The structures appear in SMILES notation.

With `CN1CCN(c2ncc(-c3cc(Cl)cc(Cl)c3Cl)c(N)n2)CC1` [Sipatrigine, 4-amino-2-(4-methyl-1-piperazinyl)-(2,3,5-trichlorophenyl)-pyrimidine], the “IFN-γ Concentration, Mean” value came out at 1275.07 pg/mL (1 μM), 1227.27 pg/mL (3 μM), 1331.70 pg/mL (10 μM) and 892.89 pg/mL (30 μM). Besides, the “inhibition of IFN-γ production (in words)” value (Experiment 1, human PBMCs) is listed as “did not inhibit IFN-γ production”.

Source of the values: patent US10576086B2, “Triazine derivatives as interferon-gamma inhibitors” (University of Greenwich, priority 2015, dated 2020).
